Assay results reported in US20050075375A1 (priority 2003, published 2005).
Read-outs that look alike come from different tables or passages of the source.

System: monocistronic NK5.1 HCV replicon in Huh7 cells
Assay: HCV replicon assay, monocistronic replicon cell line
Type: cell-based, hepatitis C virus
Details: Hepatitis C virus, read-out: Mono EC50 Median
Procedure, shortened: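 EC50 derives from the HCV RNA/GAPDH RNA ratio by one-step TaqMan RT-PCR, relative to DMSO-only wells. Compounds (six half-log concentrations, 0.6% DMSO) were incubated 3 days at 37 °C with NK5.1 monocistronic replicon Huh7 cells plated a day earlier.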

[1] = Huh-7, 72 h, table T3 (compounds 471-640), monocistronic replicon in Huh7 cells, 3 days incubation, HCV RNA/GAPDH RNA by TaqMan RT-PCR
[2] = Huh-7, 72 h, Table 1, monocistronic replicon in Huh7 cells, 3 days incubation, HCV RNA/GAPDH RNA by TaqMan RT-PCR
[3] = Huh-7, monocistronic NK5.1 HCV replicon in Huh7 cells, median value

| Structure (SMILES) | EC50 [1] [µM] | EC50 [2] [µM] | EC50 [3] [µM] |
| --- | --- | --- | --- |
| FC(F)(F)c1ccncc1-c1n[nH]c(-c2ccccc2Br)n1 [Compound 473, 3-[5-(2-Bromo-phenyl)-1H-[1,2,4]triazol-3-yl]-4-trifluoromethyl-pyridine] | > 32 | – | – |
| CCCNC(=O)c1cc(-c2ccc(OC)cc2)nn1-c1ncccc1C(F)(F)F [Compound 59, 5-(4-Methoxy-phenyl)-2-(3-trifluoromethyl-pyridin-2-yl)-2H-pyrazole-3-carboxylic acid propylamide] | – | > 32 | – |
| COc1cccc(-c2nc(-c3ccc(C(F)(F)F)cn3)no2)c1 [Compound 220, 2-[5-(3-Methoxy-phenyl)-[1,2,4]oxadiazol-3-yl]-5-trifluoromethyl-pyridine] | – | > 32 | > 32 |
| Oc1ccc(Br)cc1-c1ncn(-c2ncccc2C(F)(F)F)n1 [Compound 634, 4-Bromo-2-[1-(3-trifluoromethyl-pyridin-2-yl)-1H-[1,2,4]triazol-3-yl]-phenol] | 3.8 | – | – |
| COc1ccccc1-c1nnc(-c2ncc(C(F)(F)F)cc2Cl)o1 [Compound 346, 3-Chloro-2-[5-(2-methoxy-phenyl)-[1,3,4]oxadiazol-2-yl]-5-trifluoromethyl-pyridine] | – | – | > 32 |
| COc1cc(OCc2ccccc2)c(-c2ccn(-c3ccccn3)n2)cc1OC [Compound 121, 2-[3-(2-Benzyloxy-4,5-dimethoxy-phenyl)-pyrazol-1-yl]-pyridine] | – | 13.5 | – |
| Cc1ccc(O)c(-c2nc(-c3ccccn3)n[nH]2)c1 [Compound 359, 4-Methyl-2-(5-pyridin-2-yl-2H-[1,2,4]triazol-3-yl)-phenol] | – | – | > 19 |
| CN(C)c1ccc(-c2nc(-c3nccc4ccccc34)no2)c(O)c1 [Compound 201, 5-Dimethylamino-2-(3-isoquinolin-1-yl-[1,2,4]oxadiazol-5-yl)-phenol] | – | > 32 | – |
| Fc1ccccc1-c1nc(-c2cnccc2C(F)(F)F)n[nH]1 [Compound 475, 3-[5-(2-Fluoro-phenyl)-1H-[1,2,4]triazol-3-yl]-4-trifluoromethyl-pyridine] | > 32 | – | – |
| COc1ccc2ccccc2c1-c1nc(-c2ncccc2C)no1 [Compound 183] | – | > 32 | – |
| Cc1cc(-c2ccccc2O)n(-c2ccccc2[N+](=O)[O-])n1 [Compound 3, 2-[5-Methyl-2-(2-nitro-phenyl)-2H-pyrazol-3-yl]-phenol] | – | 31 | – |
| Oc1c(Br)cc(Br)cc1-c1nc(-c2ccccn2)n[nH]1 [Compound 620, 4,6-Dibromo-2-(5-pyridin-2-yl-2H-[1,2,4]triazol-3-yl)-phenol] | 0.6 | – | – |
| Oc1ccc(Br)cc1-c1nc(-c2ncccc2-c2ccccc2)no1 [Compound 228, 4-Bromo-2-[3-(3-phenyl-pyridin-2-yl)-[1,2,4]oxadiazol-5-yl]-phenol] | – | 2.2 | 2.2 |
| COc1ccc(OCc2ccccc2)c(-c2ccnn2Cc2ccccn2)c1 [Compound 116, 2-[5-(2-Benzyloxy-5-methoxy-phenyl)-pyrazol-1-ylmethyl]-pyridine] | – | 13 | – |
| COc1cc(O)c(-c2ccn(-c3ncccc3C)n2)cc1OC [Compound 122, 4,5-Dimethoxy-2-[l-(3-methyl-pyridin-2-yl)-1H-pyrazol-3-yl]-phenol] | – | 13 | – |
| Oc1ccc2ccccc2c1-c1nc(-c2cnccc2C(F)(F)F)n[nH]1 [Compound 429, 1-[5-(4-trifluoromethyl-pyridin-3-yl)-2H-[1,2,4]triazol-3-yl]-naphthalen-2-ol] | – | – | > 19 |
| Oc1ccccc1-c1cc(-c2ccccn2)on1 [Compound 123, 2-(5-Pyridin-2-yl-isoxazol-3-yl)-phenol] | – | > 32 | – |
| COc1ccccc1-c1nnc(-c2cccs2)o1 [Compound 331, 2-(2-Methoxy-phenyl)-5-thiophen-2-yl-[1,3,4]oxadiazole] | – | – | > 32 |
| Nc1ccc(-c2n[nH]c(-c3cc(Br)ccc3O)n2)nc1 [Compound 592, 2-[5-(5-Amino-pyridin-2-yl)-2H-[1,2,4]triazol-3-yl]-4-bromo-phenol] | > 32 | – | – |
| Cc1cc(O)c(-c2cc(C)n(-c3ccc(C(C)C)cc3)n2)cc1C [Compound 30, 2-[1-(4-Isopropyl-phenyl)-5-methyl-1H-pyrazol-3-yl]-4,5-dimethyl-phenol] | – | 12 | – |
| Oc1ccc2ccccc2c1-c1nc(-c2ccc(C(F)(F)F)cn2)no1 [Compound 221, 1-[3-(5-Trifluoromethyl-pyridin-2-yl)-[1,2,4]oxadiazol-5-yl]-naphthalen-2-ol] | – | 4.8 | 4.8 |
| COc1ccc(OC)c(-c2nc(-c3ncccc3C)no2)c1 [Compound 178, 2-[5-(2,5-Dimethoxy-phenyl)-[1,2,4]oxadiazol-3-yl]-3-methyl-pyridine] | – | > 32 | – |
| Brc1ccccc1-c1nc(-c2nccc3ccccc23)n[nH]1 [Compound 437] | – | – | 2.7 |
| COc1ccc(O)c(-c2ccnn2-c2ccccn2)c1 [Compound 85, 4-Methoxy-2-(2-pyridin-2-yl-2H-pyrazol-3-yl)-phenol] | – | > 32 | – |

| Structure (SMILES) | EC50 [1] [µM] | EC50 [2] [µM] | EC50 [3] [µM] |
| --- | --- | --- | --- |
| Cc1ccc(O)c(-c2nc(-c3ncccc3-c3ccccc3)no2)c1 [Compound 232, 4-Methyl-2-[3-(3-phenyl-pyridin-2-yl)-[1,2,4]oxadiazol-5-yl]-phenol] | – | > 32 | > 32 |
| Oc1ccc2ccccc2c1-c1nnc(-c2ccco2)o1 [Compound 307, 1-(5-Furan-2-yl-[1,3,4]oxadiazol-2-yl)-naphthalen-2-ol] | – | – | > 32 |
| Cc1ccc(O)c(-c2nc(-c3ccc(C(F)(F)F)cn3)n[nH]2)c1 [Compound 516, 4-Methyl-2-[5-(5-trifluoromethyl-pyridin-2-yl)-2H-[1,2,4]triazol-3-yl]-phenol] | > 19 | – | – |
| COc1ccccc1-c1nnc(-c2ncccc2C(F)(F)F)o1 [Compound 345] | – | – | 8.3 |
| COc1ccc(O)c(-c2nc(-c3nccc4ccccc34)no2)c1 [Compound 202, 2-(3-Isoquinolin-1-yl-[1,2,4]oxadiazol-5-yl)-4-methoxy-phenol] | – | 1.9 | – |
| COc1ccccc1-c1nnc(-c2ccccc2C(F)(F)F)o1 [Compound 327, 2-(2-Methoxy-phenyl)-5-(2-trifluoromethyl-phenyl)-[1,3,4]oxadiazole] | – | – | 25 |
| CC(=O)Nc1ccc(O)c(-c2nc(-c3ncccc3C)no2)c1 [Compound 275, N-{4-Hydroxy-3-[3-(3-methyl-pyridin-2-yl)-[1,2,4]oxadiazol-5-yl]-phenyl}-acetamide] | – | – | 18 |
| Oc1ccc(O)c(-c2nc(-c3nccc4ccccc34)no2)c1 [Compound 196, 2-(3-Isoquinolin-1-yl-[1,2,4]oxadiazol-5-yl)-benzene-1,4-diol] | – | > 32 | – |
| COc1ccc(O)c(-c2cc(-c3ccccn3)on2)c1 [Compound 125, 4-Methoxy-2-(5-pyridin-2-yl-isoxazol-3-yl)-phenol] | – | 11 | – |
| Cc1cccc(-c2n[nH]c(-c3cccc4ccccc34)n2)n1 [Compound 390, 2-Methyl-6-(5-naphthalen-1-yl-1H-[1,2,4]triazol-3-yl)-pyridine] | – | – | > 19 |
| Oc1ccc2ccccc2c1-c1nc(-c2cnccn2)n[nH]1 [Compound 589, 1-(5-pyrazin-2-yl-2H-[1,2,4]triazol-3-yl)-naphthalen-2-ol] | 7 | – | – |
| Cc1cccnc1-c1n[nH]c(-c2ccccc2Br)n1 [Compound 504, 2-[5-(2-Bromo-phenyl)-1H-[1,2,4]triazol-3-yl]-3-mehtyl-pyridine] | 7.3 | – | – |
| Oc1ccc(Cl)cc1-c1nc(-c2nccc3ccccc23)no1 [Compound 198, 4-Chloro-2-(3-isoquinolin-1-yl-[1,2,4]oxadiazol-5-yl)-phenol] | – | > 32 | – |
| Oc1ccccc1-c1nc(-c2nccc3ccccc23)no1 [Compound 206] | – | 1.4 | – |
| Oc1ccc2ccccc2c1-c1nc(-c2ncccc2Br)n[nH]1 [Compound 503, 1-(5-(3-Bromo-pyridin-2-yl)-2H-[1,2,4]triazol-3-yl)-naphthalen-2-ol] | 6.9 | – | – |
| O=[N+]([O-])c1ccc(O)c(-c2nc(-c3ncccn3)n[nH]2)c1 [Compound 560, 4-Nitro-2-(5-pyrimidin-2-yl-2H-[1,2,4]triazol-3-yl)-phenol] | > 32 | – | – |
| Cc1cccnc1-c1noc(-c2cc(NC(=O)c3ccccc3)ccc2O)n1 [Compound 290, N-{4-Hydroxy-3-[3-(3-methyl-pyridin-2-yl)-[1,2,4]oxadiazol-5-yl]-phenyl}-benzamide] | – | – | 2.8 |
| Clc1cccc(Cl)c1-c1nc(-c2ccccn2)n[nH]1 [Compound 435, 2-[5-(2,6-Dichloro-phenyl)-1H-[1,2,4]triazol-3-yl]-pyridine] | – | – | > 19 |
| COc1ccc(O)c(-c2ncn(-c3ccccn3)n2)c1 [Compound 636, 4-Methoxy-2-(1-pyridin-2-yl-1H-[1,2,4]triazol-3-yl)-phenol] | 15 | – | – |
| COc1ccccc1-c1ccnn1-c1ncccc1[N+](=O)[O-] [Compound 37, 2-[5-(2-Methoxy-phenyl)-pyrazol-1-yl]-3-nitro-pyridine] | – | > 32 | – |
| COc1ccc(O)c(-c2nc(-c3ncccc3C(F)(F)F)n[nH]2)c1 [Compound 534, 4-Methoxy-2-[5-(3-trifluoromethyl-pyridin-2-yl)-2H-[1,2,4]triazol-3-yl]-phenol] | 2.3 | – | – |
| Cc1cccnc1-c1nc(-c2ccc3ccccc3c2O)n(C)n1 [Compound 618, 2-[2-methyl-5-(3-methyl-pyridin-2-yl)-2H-[1,2,4]triazol-3-yl]-naphthalen-1-ol] | 1.5 | – | – |
| CC(C)(C)c1ccc(O)c(-c2nc(-c3ncccc3C(F)(F)F)n[nH]2)c1 [Compound 531, 4-tert-Butyl-2-[5-(3-trifluoromethyl-pyridin-2-yl)-2H-[1,2,4]triazol-3-yl]-phenol] | > 19 | – | – |
| Oc1ccccc1-c1nnc(-c2ccco2)o1 [Compound 323, 2-(5-Furan-2-yl-[1,3,4]oxadiazol-2-yl)-phenol] | – | – | > 32 |
